# Data as given in ChEMBL document CHEMBL1150639, “Antiplasmodial compounds from Cochlospermum tinctorium” (J Nat Prod, 2002).
# System: Plasmodium falciparum
# Assay: Antiplasmodial activity against chloroquine-sensitive Plasmodium falciparum 3D7
# Format: functional, organism-based
row,Compound,IC50 [µM]
1,C=C(C)[C@@H]1CC[C@]2(C(=O)O)CC[C@]3(C)[C@H](CC[C@@H]4[C@@]5(C)C[C@@H](O)[C@H](O)C(C)(C)[C@@H]5CC[C@]43C)[C@@H]12 [ALPHITOLIC ACID],35
2,CCCCCCCCCCCC(=O)CCO,68
